According to patent US12378571B2, “Use of glyphosate for disease suppression and yield enhancement in soybean” (Monsanto Technology LLC, priority 2009, dated 2025):

Legend:
[1] = system: Brown Stem Rot of soybean; assay: Field studies, Brown Stem Rot: Roundup WeatherMAX, picoxystrobin, tank mix (Rup 1X = 0.84 kg ae/ha; picoxystrobin 0.125 kg ai/ha); format: in vivo; conditions: for BSR Foliar Symptoms (0-11 HB scale): picoxystrobin 1X at R2; for Calculated Values (% of control) Foliar Symptoms: treatment 9 (picoxystrobin 1X at R2)
[2] = system: Phakopsora pachyrhizi EPSPS expressed in Escherichia coli strain lacking native EPSPS; assay: Zone of growth inhibition, filter paper disk on plate seeded with E. coli expressing fungal EPSPS; format: cell-based
Experimental: Glyphosate Mode of Action Against Plant Pathogenic Fungi A gene encoding EPSPS was cloned from a representative phytopathogenic fungus, in this case, from Phakopsora pachyrhizi, the causal agent of Asian Soybean Rust (“ASR”), and expressed in an Escherichia coli strain lacking the native bacterial E. coli EPSPS. Thus, EPSPS activity in the recombinant bacterial strain was due to the presence of the fungal EPSPS. Glyphosate was added to a filter paper disk and placed on a culture plate seeded with the recombinant E. coli cells, allowing for detection of a zone of growth inhibition of bacterial cells.

Diaporthe phaseolorum = assay: Greenhouse studies, Stem Canker of soybean, glyphosate after inoculation; format: in vivo; conditions: 0.84-2.52 kg ae/ha following inoculation
Experimental: Stem Canker of soybean (STC) is caused by Diaporthe phaseolorum. Greenhouse studies were performed to determine the efficacy of timing of glyphosate application (e.g. 0.84-2.52 kg ae/ha) following inoculation with the pathogen.

[3] = system: Brown Stem Rot (Phialaphora gregata); assay: Greenhouse studies, Brown Stem Rot, glyphosate timing and rate; format: in vivo, soybean; conditions: application 4 days before infection, about 0.84-2.5 kg ae/ha
Experimental: (§1) Greenhouse studies were performed to determine the effect of glyphosate timing and rate of application in preventing or suppressing the development of BSR in soybean plants. […] Field trials were also performed. Asgrow cv. 2107 soybean plants were planted and maintained weed free with pre-emergence herbicides at recommended rates, followed by hand weeding as necessary.

[4] = Mobilization of glyphosate in planta after foliar application; format: in vivo
Source text: Mobilization of glyphosate in planta was studied to determine the potential to impact on activity against plant diseases. About 1 day after foliar application of glyphosate about 70% of the applied glyphosate may be found on the leaf surface, where it may directly contact fungal spores or infective structures, inhibiting their growth, and killing them. About 21% of the glyphosate was found localized within the foliage where it can act to inhibit infection locally. About 9% of the applied glyphosate was transported out of the treated leaf and detected systemically (e.g. in stems and roots) at the time of testing (e.g. Feng et al. 2005). The transported fraction of applied glyphosate increases to about 40% over time, further increasing systemic fungicidal activity.

[5] = system: Brown Stem Rot (Phialaphora gregata); assay: Field trials, Brown Stem Rot, glyphosate (Example 4, Table 1); format: in vivo, soybean
Experimental: as §1

[6] = about 1 day after foliar application

Compound	BSR Foliar Symptoms (0-11 HB scale) ([1]; 7-Sep)	Calculated Values (% of control) Foliar Symptoms ([1]; 7-Sep)	BSR Foliar Symptoms (0-11 HB scale) ([1]; 14-Sep)	Calculated Values (% of control) Foliar Symptoms ([1]; 14-Sep)	BSR Foliar Symptoms (0-11 HB scale) ([1]; 31-Aug)	Calculated Values (% of control) Foliar Symptoms ([1]; 31-Aug)	zone of inhibition ([2]; 5 mg of glyphosate on filter paper disk)	zone of growth inhibition ([2]; 20 mg of glyphosate on filter paper disk)	prophylaxis of Soybean Stem Canker (Diaporthe phaseolorum)	foliar incidence of BSR [3]	applied glyphosate found on the leaf surface [4, 6]	glyphosate localized within the foliage [4, 6]	applied glyphosate transported out of the treated leaf and detected systemically (stems and roots) ([4]; at the time of testing, about 1 day after foliar application)	transported fraction of applied glyphosate ([4]; over time)	suppression of BSR, as measured by foliar symptom severity ([5]; glyphosate applied at V3- R2 growth stages)	yield relative to untreated controls ([5]; treated soybean test plots)
CO/C=C(/C(=O)OC)c1ccccc1COc1cccc(C(F)(F)F)n1 [picoxystrobin]	3.6 0-11 HB scale	72.0 % of control	6.8 0-11 HB scale	113.3 % of control	3.0 0-11 HB scale	93.8 % of control										
O=C(O)CNCP(=O)(O)O [glyphosate, N-phosphonomethylglycine]							about 24 mm	about 38 mm	Prophylactic results, even 7 or more days post-inoculation, were seen	reduced the level of foliar incidence of the disease	about 70%	About 21%	About 9%	about 40%	suppression of BSR (reduced stem rot severity)	Increased yield
